# Reference: publication PMC10740499, “Benzodioxane–Benzamides as FtsZ Inhibitors: Effects of Linker’s Functionalization on Gram-Positive Antimicrobial Activity” (Antibiotics, 2023)
# “And” between values parts separate entries of the source, which are not always exact repeats. Equal values may be shown once. Read-outs that look alike come from different tables or passages of the source.
# Legend:
# [1] = tested on: methicillin-sensitive S. aureus (MSSA, ATCC29213); assay: MIC, broth dilution, MSSA ATCC 29213; format: cell-based, Staphylococcus aureus
# Description: (§1) As described in our previous work, we evaluated all the compounds mentioned above on different S. aureus strains. We tested on both methicillin-sensitive S. aureus (MSSA, ATCC29213) and two clinical isolates of S. aureus showing multi-drug resistance (MDRSA). […] We analyzed the MICs and, if the antibacterial activity was promising, we also determined the percentage of cytotoxicity using the MTT assay on human MRC-5 cells and reported it as TD90. The results of antibacterial properties of all of the synthesized derivatives are shown in Table 1, and they are compared with their reference compounds FZ14, FZ88, and FZ100.
# Gram-positive methicillin-sensitive Staphylococcus aureus (MSSA, ATCC 29213) was grown in Luria–Bertani broth (LB), as already described in our papers.
# (§2) The detailed protocol is identical to what was previously reported. Briefly, the antimicrobial testing of compounds followed the Clinical and Laboratory Standards Institute and European Committee for Antimicrobial Susceptibility Testing guidelines. A bacterial suspension equivalent to 0.5 McFarland turbidity standard was diluted in cation-adjusted Mueller Hinton broth to prepare a fresh bacterial culture of 10^5 CFU/mL. Compounds dissolved in DMSO were combined with the bacteria and incubated for 20 h at 35 °C. MIC values were determined visually as the lowest compound dilution with no turbidity. MICs were determined against methicillin-sensitive and methicillin-resistant S. aureus strains (11.7 and 12.1). Every assay was performed in triplicate, and for each series of experiments, both positive (tetracycline) and negative (no compounds) controls were included.
# MDRSA 12.1 = assay: MIC, broth dilution, MDRSA 12.1; format: cell-based, Staphylococcus aureus; conditions: MDRSA 12.1 clinical isolate
# Description: as §1, §2
# [2] = tested on: B. subtilis strain WM5126; assay: Spot viability assay on solid medium; format: cell-based, Bacillus subtilis; conditions: for concentration able to kill on solid medium: spot dilutions on LB agar; for growth on solid medium at 6 µg/mL: 6 µg/mL in LB agar; for colony viability on solid medium, in words: more potent compounds, Figure 4A
# Description: (§3) We further evaluated the most promising compounds on B. subtilis, a model Gram-positive species used previously in evaluating other benzamides, including by our research group. The B. subtilis strain WM5126 expresses a xylose-inducible GFP-tagged ZapA protein. […] We first tested the effects of the compounds on colony viability on solid medium (Figure 4). […] MIC values from microdilution experiments, shown in the right column in Figure 4, largely mirrored the spot viability data.
# (§4) The B. subtilis strain used was WM5126 (JH642 amyE::Pxyl-gfp-zapA). For spot viability assays on plates, compounds were diluted from DMSO stocks into molten LB agar and mixed well before solidifying. To assess viability, cells were grown until the early log phase, and then 10-fold serial dilutions of the culture in LB were spotted onto LB agar plates containing the indicated final concentration of the compounds. The plates were incubated overnight at 30 °C and photographed. Microdilution assays to obtain MICs were performed essentially as described for E. coli.
# MDRSA 11.7 = assay: MIC, broth dilution, MDRSA 11.7; format: cell-based, Staphylococcus aureus; conditions: MDRSA 11.7 clinical isolate
# Description: as §1, §2
# [3] = tested on: B. subtilis strain WM5126; assay: MIC from broth microdilution; format: cell-based, Bacillus subtilis
# Description: as §3, §4
# [4] = tested on: FtsZ rings in live B. subtilis WM 5126 cells expressing GFP-ZapA; assay: GFP-ZapA fluorescence microscopy of FtsZ assembly; format: cell-based, Bacillus subtilis; conditions: 0.3 µg/mL (0.8 µM), 90 min
# Experimental: To test if the differential effects of FZ116 and FZ117 enantiomers could be detected as FtsZ assembly changes in B. subtilis cells, we visualized GFP-ZapA patterns after growth in inhibitory concentrations of FZ116 and FZ117 (0.3 µg/mL or 0.8 µM). Cells grown with no added compound grew as typical single bacilli and short chains, with well- defined Z rings clearly visible (Figure 5, left panel, single yellow arrows). […] This conversion of FtsZ rings into a speckle pattern was observed previously, both with FZ100 [14] and with the original benzamide derivatives.
# For fluorescence microscopy, overnight cultures of WM5126 were grown at 33 °C (after 1:200 dilution overnight and addition of 0.1% xylose to induce expression of GFP-ZapA) for ~2 h until reaching an OD600 of ~0.2 and then treated with no drug or with compounds FZ116 or FZ117 diluted in water to a final concentration of 0.3 µg/mL (0.8 µM) from stock solutions of 30 mg/mL in DMSO. After the addition of the compounds, the cultures were grown for 90 min while shaking at 33 °C prior to spotting on a thin layer of 1% agarose in phosphate-buffered saline. Cells were imaged with an Olympus BX100 fitted with a 100 × Plan Apochromat objective (N.A. 1.4) and a GFP filter set (Chroma). Images were acquired with CellSens Dimension version 2 software (Evident Corporation, Tokyo, Japan).
# human MRC-5 cells [5] = assay: MTT cytotoxicity assay; format: cell-based; conditions: MRC-5, MTT assay
# Description: as §1
# Normal human lung fibroblasts (MRC-5) were grown in Dulbecco’s Modified Eagle’s medium (DMEM) supplemented with 10% heat-inactivated fetal calf serum (FCS), 100 U/mL penicillin, and […] streptomycin.
# Compounds showing promising antibacterial activity were serially diluted in DMEM and tested for cytotoxicity on MRC-5 cells using the MTT assay (Sigma, St Louis, MO, USA), following the same protocol we previously reported.
# [6] = tested on: methicillin-sensitive Staphylococcus aureus (MSSA); conditions: cited from earlier work
# human MRC-5 cells [7] = tested on: human MRC-5 cells; parameters: method as in PMID 33920895; conditions: in words; cited from earlier work
# [8] = tested on: methicillin-resistant S. aureus (MRSA); conditions: cited from earlier work
# B. subtilis = tested on: B. subtilis; parameters: method as in PMID 33920895; conditions: cited from earlier work
# [9] = Staphylococcus aureus, 20 h, MSSA ATCC 29213, 20 h at 35 °C, read-out: MIC
# [10] = Staphylococcus aureus, read-out: MIC vs S. aureus
# [11] = Bacillus subtilis, value in brackets
# [12] = MSSA ATCC 29213, 20 h at 35 °C, read-out: MIC
# [13] = as repeated in Table S1 beside the docking ranges, read-out: MIC vs S. aureus
Structure (SMILES),"MIC [1, 9]","MIC [1, 10]",MIC (MDRSA 12.1; Staphylococcus aureus),MIC (MDRSA 11.7; Staphylococcus aureus),MIC ([3]; Bacillus subtilis),"MIC [3, 11]",TD90 (human MRC-5 cells [5]),further results
"C[C@H](Oc1ccc(F)c(C(N)=O)c1F)[C@H]1COc2ccccc2O1 (relative stereo) [FZ104, 3-[1-(1,4-benzodioxan-2yl)ethyl-1-oxy]-2,6-difluorobenzamide]",23.9 µM,23.9 µM,23.9 µM,23.9 µM,3.75 µg/mL,11 µM,,concentration able to kill on solid medium ([2]; overnight 30 °C): 6 µg/mL; concentration able to kill on solid medium ([2]; value in brackets): ~ 20 µM
NC(=O)c1c(F)ccc(OC[C@H](O)[C@H]2COc3ccccc3O2)c1F (relative stereo) [FZ112],364 µM,364 µM,364 µM,364 µM,7.5 µg/mL,21 µM,,growth on solid medium at 6 µg/mL [2]: still permitted growth
NC(=O)c1c(F)ccc(OC[C@@H](O)[C@H]2COc3ccccc3O2)c1F (relative stereo) [FZ113],364 µM,364 µM,364 µM,364 µM,15 µg/mL,42 µM,,growth on solid medium at 6 µg/mL [2]: still permitted growth
NC(=O)c1c(F)ccc(OC[C@@H](O)[C@H]2COc3cc4c(cc3O2)CCCC4)c1F (relative stereo) [FZ117],19.7 µM,19.7 µM,19.7 µM,19.7 µM,0.94 µg/mL,2.7 µM,468.7 µM,"FtsZ ring / GFP-ZapA pattern [4]: mixture of FtsZ speckles and Z rings; colony viability on solid medium, in words [2]: less effective"
"NC(=O)c1c(F)ccc(OCC2COc3ccccc3O2)c1F (stereo not drawn) [FZ14, reference compound]",15.6 µM,,15.6 µM,15.6 µM,,,49.8 µM,
"NC(=O)c1c(F)ccc(OCCC2COc3ccccc3O2)c1F (stereo not drawn) [FZ88, reference compound]",14.9 µM,,14.9 µM,14.9 µM,,,226 µM,
NC(=O)c1c(F)ccc(OCCC2COc3cc4ccccc4cc3O2)c1F (stereo not drawn) [FZ95],,,,,,,,MIC [6]: 0.25 μg/mL and 0.6 μM; cytotoxicity towards human MRC-5 cells (human MRC-5 cells [7]): low to no cytotoxicity; MIC [8]: 0.25 μg/mL and 0.6 μM; MIC (B. subtilis): under 0.1 μg/mL
"CC(COc1ccc(F)c(C(N)=O)c1F)C1COc2ccccc2O1 (stereo not drawn) [FZ97, 3-(2-(1,4-benzodioxan-2-yl)-1-propyloxy)-2,6-difluorobenzamide]",,,,,,,,"MIC [1, 12]: 366.4 µM; MIC [1, 13]: 366.4 µM; MIC (MDRSA 12.1): 366.4 µM; MIC (MDRSA 11.7): 366.4 µM"
"CC(COc1ccc(F)c(C(N)=O)c1F)C1COc2ccccc2O1 (stereo not drawn) [FZ98, 3-(2-(1,4-benzodioxan-2-yl)-1-propyloxy)-2,6-difluorobenzamide]",,,,,15 µg/mL,42 µM,,"MIC [1, 12]: 91.6 µM; MIC [1, 13]: 91.6 µM; MIC (MDRSA 12.1): 91.6 µM; growth on solid medium at 6 µg/mL [2]: still permitted growth; MIC (MDRSA 11.7): 91.6 µM"
NC(=O)c1c(F)ccc(OCCC2COc3cc4c(cc3O2)CCCC4)c1F (stereo not drawn) [FZ100],0.25 µM,,0.25 µM,0.25 µM,,,2054 µM,MIC [6]: 0.1 μg/mL and 0.25 μM; cytotoxicity towards human MRC-5 cells (human MRC-5 cells [7]): low to no cytotoxicity; MIC [8]: 0.1 μg/mL and 0.25 μM; MIC (B. subtilis): under 0.1 μg/mL
"CC(Oc1ccc(F)c(C(N)=O)c1F)C1COc2ccccc2O1 (stereo not drawn) [FZ105, 3-[1-(1,4-benzodioxan-2yl)ethyl-1-oxy]-2,6-difluorobenzamide]",191 µM,191 µM,191 µM,191 µM,,,,
"CC(COc1ccc(F)c(C(N)=O)c1F)C1COc2cc3c(cc2O1)CCCC3 (stereo not drawn) [FZ118, Erythro 3-(2-(5,6,7,8-Tetrahydro-1,4-naphthodioxan-2-yl)prop-1-yloxy)-2,6-difluorobenzamide]",9.9 µM,9.9 µM,9.9 µM,9.9 µM,< 0.24 µg/mL,< 0.6 µM,471.0 µM,"colony viability on solid medium, in words [2]: less effective"
"CC(COc1ccc(F)c(C(N)=O)c1F)C1COc2cc3c(cc2O1)CCCC3 (stereo not drawn) [FZ119, Threo 3-(2-(5,6,7,8-Tetrahydro-1,4-naphthodioxan-2-yl)prop-1-yloxy)-2,6-difluorobenzamide]",,,,,,,247.9 µM,"MIC [1, 12]: 9.9 µM; MIC [1, 13]: 9.9 µM; MIC (MDRSA 12.1): 9.9 µM; colony viability on solid medium, in words [2]: killed B. subtilis at the lowest doses; MIC (MDRSA 11.7): 9.9 µM; MIC (microdilution) [3]: < 0.24 µg/mL; MIC ([3]; value in brackets): < 0.6 µM"
NC(=O)c1c(F)ccc(OCc2nc3cc(Cl)cnc3s2)c1F [PC190723],,,,,,,,MIC [6]: 1 µg/mL; MIC [8]: 1 µg/mL
